Reference: PubChem BioAssay (NCI)
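How tested: cells in 96-well plates exposed to compound for 48 hours at five concentrations. GI50 is the concentration that inhibits growth by half. TGI is the concentration that stops growth completely.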

How the values were obtained:
Assay in all cases: NCI anticancer screen, dose series, 48 h
[1] = system: HOP-62 NSCLC
[2] = system: TK-10 renal
[3] = system: HL-60(TB) leukemia
[4] = system: HCC-2998 colon
[5] = system: OVCAR-8 ovarian
[6] = system: MALME-3M melanoma
[7] = system: SK-MEL-2 melanoma
[8] = system: OVCAR-5 ovarian
[9] = system: SK-OV-3 ovarian
[10] = system: IGROV1 ovarian
[11] = system: SF-539 CNS
[12] = system: SN12C renal
[13] = system: SW-620 colon
[14] = system: CAKI-1 renal

Row | SMILES | TGI [1] | TGI [2] | TGI [3] | TGI [4] | TGI [5] | TGI [6] | TGI [7] | TGI [8] | TGI [9] | TGI [10] | TGI [11] | TGI [12] | TGI [13] | GI50 [2] | GI50 [4] | GI50 [9] | GI50 [10] | GI50 [11] | TGI [14] | GI50 [13]
1 | N#CSCC(Cl)=CCl (mixture of isomers) | > 100 µM | > 100 µM | > 100 µM | > 100 µM | > 100 µM | > 100 µM | > 100 µM | > 100 µM | > 100 µM | > 100 µM | > 100 µM | > 100 µM | > 100 µM |  |  |  |  |  |  | 
2 | CCOC(=O)Nc1cc2c(c(N)n1)N=C(c1ccc(OC)cc1)CN2 | 1.49 µM | 90.1 µM | 0.00595 µM | 0.178 µM | > 100 µM |  | 0.0838 µM | 21.8 µM | 18.7 µM | 0.0741 µM |  | 54.5 µM |  | 0.837 µM | 0.0185 µM | 0.0475 µM | 0.0355 µM | < 0.0001 µM |  | 
3 | C/C(=N\NS(=O)(=O)c1ccc(C)cc1)c1ccccn1 | > 100 µM | > 100 µM | 73.3 µM | > 100 µM | > 100 µM | > 100 µM | > 100 µM | > 100 µM | > 100 µM | > 100 µM | > 100 µM |  | > 100 µM |  |  |  |  |  | > 100 µM | 
4 | O=S(Cc1ccccc1)c1nc2ccccc2nc1-c1cccs1 (centres undefined) | 37.4 µM | 28 µM | > 100 µM | 26.1 µM | 38.8 µM | 19.4 µM | 24.2 µM | 31.9 µM | 85.4 µM | 29.2 µM | 30 µM | 28.1 µM |  |  |  |  |  |  |  | 
5 | O=[N+]([O-])c1ccc(CSc2nncc3[nH]cnc23)cc1 | > 100 µM | > 100 µM | > 100 µM | > 100 µM | > 100 µM | > 100 µM | > 100 µM | > 100 µM | > 100 µM | > 100 µM | > 100 µM | > 100 µM | > 100 µM |  |  |  |  |  | > 100 µM | 
6 | CS(=O)(=O)C(C#N)c1nc2ccccc2nc1Cl (centres undefined) | > 100 µM | > 66.5 µM | > 100 µM | > 100 µM | > 100 µM | > 100 µM | > 100 µM | > 100 µM | > 100 µM | > 100 µM | > 65.9 µM | > 100 µM | > 100 µM |  |  |  |  |  | > 100 µM | 
7 | O=C1CS(=O)(=O)C(c2cccc(Oc3ccccc3)c2)N1c1ccc(Cl)cc1 (centres undefined) | > 100 µM | 61.4 µM | > 100 µM | 20.8 µM | 47.8 µM | 73.2 µM | 31.9 µM | > 100 µM | > 100 µM | 39 µM | 39.9 µM | 57.7 µM | > 100 µM |  |  |  |  |  | 64.8 µM | 
8 | Cc1nc2ccc(Br)cc2c(=O)n1-c1nnc(C(C)(C)C)s1 | > 10 µM | > 10 µM | > 10 µM | > 10 µM | > 10 µM |  | > 10 µM | > 10 µM | > 10 µM | > 10 µM | > 10 µM | > 10 µM | > 10 µM |  |  |  |  |  | > 10 µM | 
9 | CCOC(=O)/C=C(\C(=O)OCC)n1cc(C)c(=O)n(Cc2cn(CCCCOC(C)=O)nn2)c1=O | 37.4 µM | 18.5 µM | 7.32 µM | 34 µM | 21.2 µM | 4.16 µM | 36.4 µM | 27.1 µM | > 70.7 µM | 27.5 µM | 5.17 µM | > 56.7 µM | 31.8 µM |  |  |  |  |  | 10.4 µM | 5 µM
10 | COc1ccc(/C=C2\N=C(N3CCCCC3)NC2=O)cc1 | > 100 µM | > 100 µM | > 100 µM | > 100 µM | > 100 µM | > 100 µM | > 100 µM | > 100 µM | > 100 µM | > 100 µM | > 100 µM | > 100 µM | > 100 µM |  |  |  |  |  | > 100 µM | 
11 | CC1(C)OCN(c2ccc(N3CCOCC3)cc2)Cn2c1nc1ccccc12 | > 100 µM | > 100 µM | 72.9 µM | > 100 µM | > 100 µM | > 100 µM | > 100 µM |  | > 100 µM | > 100 µM | > 100 µM | > 100 µM | > 100 µM |  |  |  |  |  |  | 
12 | Clc1ccc(CCN(CCc2ccc(Cl)c(Cl)c2)CCN2CCCC2)cc1Cl | 3.03 µM | 3.17 µM | 3.25 µM | 3.19 µM | 3.06 µM | 3.5 µM | 3.04 µM | 3.23 µM | 3.49 µM | 2.93 µM | 3.18 µM |  |  |  |  |  |  |  | 3.02 µM | 
13 | O=C(O)CO[C@@]12C#C/C=C\C#C[C@@H]3N(C(=O)Oc4ccccc4)c4ccccc4[C@]14O[C@@]34CCC2 | > 100 µM | > 100 µM | > 100 µM | 28.7 µM | > 100 µM |  | 32.2 µM |  | 19.9 µM | > 100 µM | > 100 µM | > 100 µM | > 100 µM |  |  |  |  |  | > 100 µM | 
14 | COc1ccc2c(c1)/C(=C\c1c(Cl)[nH]c3cc(C)c(OC)cc13)C(=O)N2 | 23 µM | 15.9 µM | 2.46 µM | 6.19 µM | 8.22 µM | 19.2 µM | 18.5 µM | 14.1 µM | 3.07 µM | 5.3 µM | 1.24 µM | 10.7 µM | > 40.1 µM |  |  |  |  |  | 20.4 µM | 
15 | CSc1c(C(=O)Nc2ccccc2)c(N)n(N)c(=O)c1C#N |  | > 100 µM | > 100 µM | > 100 µM | > 100 µM | > 100 µM | > 100 µM | > 100 µM | > 100 µM | > 100 µM | > 100 µM | > 100 µM | > 100 µM |  |  |  |  |  | > 100 µM | 
16 | CCOC(=O)c1ccc(N=C/C=C(\Nc2ccc(C(=O)OCC)cc2)C23CC4CC(CC(C4)C2)C3)cc1 | > 100 µM | > 100 µM | > 100 µM | > 100 µM | > 100 µM | > 100 µM | > 100 µM | > 100 µM | > 100 µM | > 100 µM | > 100 µM | > 100 µM | > 100 µM |  |  |  |  |  | > 100 µM | 
